Here are results for 4 compounds from patent US6649394B1, “Topoisomerase IV, corresponding nucleotide sequences and uses thereof” (priority 1997, dated 2003).

The target of assay [1] is T1, wild-type GrlAB protein (DNA topoisomerase IV) of S. aureus (Staphylococcus aureus, UniProt P0C1S7+P0C1U9).
T1 construct: made in house; host or cells: E. coli XL1-Blue (pXL2340 for GrlA, pXL2320 for GrlB; pRSETB vector, T7 promoter)
Nature of the assay: Decatenation of kinetoplast DNA by purified wild-type GrlAB protein. Type of assay: biochemical. The protocol:
(§1) The ATP-dependent activity of decatenation of intertwined circular DNA molecules (catenanes) can be detected by carrying out the procedure, for example, in the following manner: a mixture of an extract of the E. coli strain XL1-blue pXL2320 (2.5 μg of proteins) and of an extract of the E. coli strain XL1-blue pXL2340 (2.5 μg of proteins) is incubated for 1 h at 37° C. in 40 μl of 50 mM Tris/HCl buffer pH 7.7 containing 1 mM ATP, 6 mM MgCl2, 200 mM glutamate, 10 mM DTT, 10 mM NaCl, 50 μg/ml of bovine serum albumin and 800 ng of kinetoplast DNA [consisting of a network of intertwined DNA molecules (catenanes) obtained from Crithidia fasciculata; TopoGene]. The reaction is stopped by adding 7 μl of a 250 mM EDTA solution (incubation 5 min at 37° C.), 5 μl of a 5% SDS and 2.5 mg/ml proteinase K mixture (incubation 30 min at 37° C.). The mixture is then analysed by electrophoresis on a 1% agarose gel in a 0.1 M Tris/borate buffer pH 8.3 containing 2 mM EDTA at 6 V/cm for 2 h 30 min. After staining the DNA with ethidium bromide (1 μg/ml), the DNA is quantified by scanning the negatives of photographs of the gels (Polaroid type 665 film) with the aid of a Bioimage 50S apparatus (Millipore). […] This activity is detected by the appearance of a DNA band with a size of about 2.5 kb and by the disappearance of the band of catenated DNA of very large size which penetrates very little into the gel during the electrophoretic run (FIG. 5).
(§2) To carry out the experiments described in the examples which follow, the incubations are carried out with the purified wild-type GrlAB proteins as described in Example 7, and with the mutant protein GrlA(Ser-80→Tyr)B as described in Example 8. The two wild-type and mutant GrlAB proteins are reconstituted by mixing equimolar quantities of their two GrlA and GrlB subunits.

Assay [2] addresses T2, mutant protein GrlA(Ser-80→Tyr)B (DNA topoisomerase IV) of S. aureus (Staphylococcus aureus, UniProt P0C1S7+P0C1U9, F80Y).
T2 construct: made in house; host or cells: E. coli XL1-Blue (pXL2742 for GrlA Ser-80→Tyr, pXL2320 for GrlB)
Kind of assay: biochemical. The protocol:
as §1
(§3) The ATP-dependent activities of supercoiled DNA relaxation, on the one hand, and of decatenation of intertwined circular DNA molecules, on the other hand, are detected in this extract as described in Example 7, by incubating, in the same reaction mixture, an acellular extract of the E. coli strain XL1-Blue pXL2742 containing the protein GrlA(Ser-80→Tyr) and an extract of the E. coli strain XL1-Blue pXL2320 containing the GrlB protein.
as §2

The subject of assay [3] is mutant protein GrlA(Ser-80→Tyr)B (DNA topoisomerase IV) of S. aureus. Nature of the assay: biochemical. More on the design: species or system Staphylococcus aureus. Particulars: GrlA(Ser-80→Tyr)B versus wild-type GrlAB. The method, then: as §1, §3, §2

`CC1COc2c(N3CCN(C)CC3)c(F)cc3c(=O)c(C(=O)O)cn1c23` (centres unmarked) [Ofloxacin]: the IC50 in assay [1] is 27.7 µM; in assay [2], 692 µM.

Regarding `O=C(O)c1cn(C2CC2)c2cc(N3CCNCC3)c(F)cc2c1=O` [ciprofloxacin], the “concentration above which the activity of decatenation of kinetoplast DNA is completely inhibited” value in assay [1] (purified wild-type GrlAB enzyme) is > 10 µg/mL.

`C[C@@H]1CN(c2c(F)c(N)c3c(=O)c(C(=O)O)cn(C4CC4)c3c2F)C[C@H](C)N1` [sparfloxacin]: the IC50 in assay [1] is 15.3 µM; in assay [2], 1270 µM. Moreover, in assay [3], the “concentration for 50% inhibition with mutant enzyme relative to wild-type enzyme” value was determined as 80 times.

Regarding `CO[C@@H]1[C@@H](OC(N)=O)[C@@H](O)[C@H](Oc2ccc3c(O)c(NC(=O)c4ccc(O)c(CC=C(C)C)c4)c(=O)oc3c2C)OC1(C)C` [novobiocin], the concentration for half-maximal inhibition (IC50) in assay [1] and in assay [2] was ~49 µM each time.

What is called IC50 is the concentration needed to halve the response being measured. Low readings indicate inhibition by little substance, high ones a need for much substance.
